Reference: PubChem BioAssay (NCI)
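48-hour exposure; five concentrations; linearly interpolated endpoints. GI50: concentration for 50% inhibition of growth. TGI: total growth inhibition.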

What was measured:
Experiment in all cases: NCI-60 cell line screen, 48 h
NCI-H23 lung = test system: NCI-H23 lung
BT-549 breast = test system: BT-549 breast
SF-539 CNS = test system: SF-539 CNS
K-562 leukemia = test system: K-562 leukemia
HL-60(TB) leukemia = test system: HL-60(TB) leukemia
HOP-92 NSCLC = test system: HOP-92 NSCLC
T-47D breast = test system: T-47D breast
ACHN renal = test system: ACHN renal
HCT-116 colon = test system: HCT-116 colon
A549 NSCLC = test system: A549 NSCLC
SK-MEL-5 melanoma = test system: SK-MEL-5 melanoma
HT29 colon = test system: HT29 colon
UO-31 renal = test system: UO-31 renal
NCI-H460 lung = test system: NCI-H460 lung
SF-268 CNS = test system: SF-268 CNS
NCI-H226 lung = test system: NCI-H226 lung
SW-620 colon = test system: SW-620 colon
M14 melanoma = test system: M14 melanoma
UACC-62 melanoma = test system: UACC-62 melanoma
IGROV1 ovarian = test system: IGROV1 ovarian
SR leukemia = test system: SR leukemia
TK-10 renal = test system: TK-10 renal
HS 578T breast = test system: HS 578T breast
MDA-MB-435 = test system: MDA-MB-435
DU-145 prostate = test system: DU-145 prostate
OVCAR-3 ovarian = test system: OVCAR-3 ovarian
A498 renal = test system: A498 renal
SNB-75 CNS = test system: SNB-75 CNS
LOX IMVI melanoma = test system: LOX IMVI melanoma
CCRF-CEM leukemia = test system: CCRF-CEM leukemia
NCI-H522 lung = test system: NCI-H522 lung
MALME-3M melanoma = test system: MALME-3M melanoma
NCI/ADR-RES ovarian = test system: NCI/ADR-RES ovarian
RPMI-8226 leukemia = test system: RPMI-8226 leukemia
KM12 colon = test system: KM12 colon
MCF7 breast = test system: MCF7 breast
RXF 393 renal = test system: RXF 393 renal
MOLT-4 leukemia = test system: MOLT-4 leukemia
UACC-257 melanoma = test system: UACC-257 melanoma
786-0 renal = test system: 786-0 renal
SNB-19 CNS = test system: SNB-19 CNS
SK-OV-3 ovarian = test system: SK-OV-3 ovarian
OVCAR-5 ovarian = test system: OVCAR-5 ovarian
PC-3 prostate = test system: PC-3 prostate
OVCAR-4 ovarian = test system: OVCAR-4 ovarian
MDA-MB-231 breast = test system: MDA-MB-231 breast
EKVX NSCLC = test system: EKVX NSCLC
HCC-2998 colon = test system: HCC-2998 colon
HOP-62 NSCLC = test system: HOP-62 NSCLC
SK-MEL-2 melanoma = test system: SK-MEL-2 melanoma
CAKI-1 renal = test system: CAKI-1 renal
HCT-15 colon = test system: HCT-15 colon
COLO 205 colon = test system: COLO 205 colon
SK-MEL-28 melanoma = test system: SK-MEL-28 melanoma
U251 CNS = test system: U251 CNS
SN12C renal = test system: SN12C renal
OVCAR-8 ovarian = test system: OVCAR-8 ovarian
SF-295 CNS = test system: SF-295 CNS

With `CCCC(=O)NC(c1ccc(N(CC)CC)cc1)c1cc(C)c2cccnc2c1O` (stereo not drawn) the GI50 (NCI-H23 lung) was 462 nM, the TGI (NCI-H23 lung) was over 100000 nM and the GI50 (BT-549 breast) was 1040 nM. It also gave a TGI (BT-549 breast) of over 59200 nM, a GI50 (SF-539 CNS) of 462 nM and a TGI (SF-539 CNS) of 4560 nM. It also gave a GI50 (K-562 leukemia) of 336 nM, a TGI (K-562 leukemia) of over 100000 nM and a GI50 (HL-60(TB) leukemia) of 331 nM. For the same molecule, the TGI (HL-60(TB) leukemia) was 4850 nM, the GI50 (HOP-92 NSCLC) was 306 nM and the TGI (HOP-92 NSCLC) was over 100000 nM. It also gave a GI50 (T-47D breast) of 675 nM, a TGI (T-47D breast) of over 100000 nM and a GI50 (ACHN renal) of 422 nM. It also gave a TGI (ACHN renal) of over 24300 nM, a GI50 (HCT-116 colon) of 381 nM and a TGI (HCT-116 colon) of over 100000 nM. For the same molecule, the GI50 (A549 NSCLC) was 737 nM, the TGI (A549 NSCLC) was over 100000 nM and the GI50 (SK-MEL-5 melanoma) was 639 nM. It also gave a TGI (SK-MEL-5 melanoma) of 5530 nM, a GI50 (HT29 colon) of 492 nM and a TGI (HT29 colon) of over 100000 nM. For the same molecule, the GI50 (UO-31 renal) was 302 nM, the TGI (UO-31 renal) was 5670 nM and the GI50 (NCI-H460 lung) was 247 nM. For the same molecule, the GI50 (SF-268 CNS) was 438 nM, the TGI (SF-268 CNS) was 32600 nM and the GI50 (NCI-H226 lung) was 513 nM. For the same molecule, the TGI (NCI-H226 lung) was 4260 nM, the GI50 (SW-620 colon) was 522 nM and the TGI (SW-620 colon) was over 100000 nM. The GI50 (M14 melanoma) was 462 nM, the TGI (M14 melanoma) was 5120 nM and the GI50 (UACC-62 melanoma) was 347 nM. The TGI (UACC-62 melanoma) was 1390 nM, the GI50 (IGROV1 ovarian) was 439 nM and the TGI (IGROV1 ovarian) was 14600 nM. The GI50 (SR leukemia) was 388 nM, the TGI (SR leukemia) was over 54400 nM and the GI50 (TK-10 renal) was 489 nM. The TGI (TK-10 renal) was over 100000 nM, the GI50 (HS 578T breast) was 358 nM and the TGI (HS 578T breast) was over 100000 nM. It also gave a GI50 (MDA-MB-435) of 409 nM, a TGI (MDA-MB-435) of over 48600 nM and a GI50 (DU-145 prostate) of 710 nM. For the same molecule, the TGI (DU-145 prostate) was over 100000 nM, the GI50 (OVCAR-3 ovarian) was 374 nM and the TGI (OVCAR-3 ovarian) was over 100000 nM. It also gave a GI50 (A498 renal) of over 100000 nM, a TGI (A498 renal) of over 100000 nM and a GI50 (SNB-75 CNS) of 199 nM. The TGI (SNB-75 CNS) was 1800 nM, the GI50 (LOX IMVI melanoma) was 496 nM and the TGI (LOX IMVI melanoma) was over 100000 nM. The GI50 (CCRF-CEM leukemia) was 407 nM, the TGI (CCRF-CEM leukemia) was over 100000 nM and the GI50 (NCI-H522 lung) was 319 nM. It also gave a GI50 (MALME-3M melanoma) of 1450 nM, a TGI (MALME-3M melanoma) of over 87300 nM and a GI50 (NCI/ADR-RES ovarian) of 366 nM. It also gave a TGI (NCI/ADR-RES ovarian) of over 100000 nM, a GI50 (RPMI-8226 leukemia) of 520 nM and a TGI (RPMI-8226 leukemia) of over 100000 nM. The GI50 (KM12 colon) was 454 nM, the TGI (KM12 colon) was over 100000 nM and the GI50 (MCF7 breast) was 303 nM. The TGI (MCF7 breast) was over 100000 nM, the GI50 (RXF 393 renal) was 1450 nM and the TGI (RXF 393 renal) was over 26900 nM. The GI50 (MOLT-4 leukemia) was 397 nM, the TGI (MOLT-4 leukemia) was over 100000 nM and the GI50 (UACC-257 melanoma) was 834 nM. It also gave a TGI (UACC-257 melanoma) of over 24600 nM, a GI50 (786-0 renal) of 763 nM and a TGI (786-0 renal) of over 38500 nM. It also gave a GI50 (SNB-19 CNS) of 464 nM, a TGI (SNB-19 CNS) of over 100000 nM and a GI50 (SK-OV-3 ovarian) of 635 nM. It also gave a TGI (SK-OV-3 ovarian) of over 100000 nM, a GI50 (OVCAR-5 ovarian) of 791 nM and a TGI (OVCAR-5 ovarian) of over 100000 nM. For the same molecule, the GI50 (PC-3 prostate) was 477 nM, the TGI (PC-3 prostate) was over 100000 nM and the GI50 (OVCAR-4 ovarian) was 394 nM. The TGI (OVCAR-4 ovarian) was over 100000 nM, the GI50 (MDA-MB-231 breast) was 539 nM and the TGI (MDA-MB-231 breast) was over 100000 nM. The GI50 (EKVX NSCLC) was 313 nM, the TGI (EKVX NSCLC) was 5040 nM and the GI50 (HCC-2998 colon) was 570 nM. For the same molecule, the TGI (HCC-2998 colon) was over 100000 nM, the GI50 (HOP-62 NSCLC) was 511 nM and the TGI (HOP-62 NSCLC) was over 100000 nM. The GI50 (SK-MEL-2 melanoma) was 399 nM, the TGI (SK-MEL-2 melanoma) was over 42000 nM and the GI50 (CAKI-1 renal) was 381 nM. For the same molecule, the GI50 (HCT-15 colon) was 323 nM, the TGI (HCT-15 colon) was over 100000 nM and the GI50 (COLO 205 colon) was 398 nM. The TGI (COLO 205 colon) was over 100000 nM, the GI50 (SK-MEL-28 melanoma) was 561 nM and the TGI (SK-MEL-28 melanoma) was over 100000 nM. It also gave a GI50 (U251 CNS) of 386 nM, a TGI (U251 CNS) of over 100000 nM and a GI50 (SN12C renal) of 828 nM. It also gave a TGI (SN12C renal) of over 100000 nM, a GI50 (OVCAR-8 ovarian) of 381 nM and a TGI (OVCAR-8 ovarian) of over 100000 nM. The GI50 (SF-295 CNS) was 352 nM and the TGI (SF-295 CNS) was over 100000 nM.
